Columns and labels:
Assay type in all cases: cell-based, P. aeruginosa
MvfR regulon [1] = assay: LC/MS quantification of HAQs and related molecules in bacterial culture supernatants; conditions: Pseudomonas aeruginosa
MvfR regulon [2] = assay: Quantification of pyocyanin (OD520nm of chloroform-extracted cultures); conditions: for activity at 50 µM: read-out: pyocyanin @50 uM (%), compound at 50 uM
MvfR regulon [3] = assay: pqsA gene expression (pqsA-GFP reporter); conditions: for activity at 50 µM: read-out: pqsA @50 uM (%), compound at 50 uM; for activity at 10 µM: read-out: pqsA @10 uM (%), compound at 10 uM
Method: Experiments were performed to identify compounds that inhibit the MvfR regulon without altering growth, ultimately attenuating P. aeruginosa infection. MvfR is a LysR-type transcriptional regulator that directs HAQs synthesis, including that of its ligands, 4-hydroxy-2-heptylquinoline (HHQ) and 3,4-dihydroxy-2-heptylquinoline (PQS).
MvfR promotes the production of HAQs by binding to and activating the pqs operon, which encodes enzymes for HAQ synthesis. Anthranilic acid (AA), derived from the phnAB, kynABU, and trpEG pathways, is the precursor for HAQs. pqsA encodes an anthranilate-coenzyme A ligase, which activates anthranilic acid and catalyzes the first committed step to HAQ production. The exact roles of PqsB and PqsC are unknown, though both show homology to acyl-carrier-proteins and both are required for HHQ and PQS production. […] The final gene of the operon, pqsE encodes for a putative hydrolase, and while the protein is not required for the synthesis of HAQs, it is necessary for pyocyanin production.
Nanomolar levels of most of these MvfR antagonists impeded the activity of MvfR and in consequence the MvfR virulence regulated ACRP functions, including: (1) the production of the important pro-acute P. aeruginosa virulence factor pyocyanin (see e.g., FIG. 9A) the efficacy of two of these potent inhibitors, D57 and D88, was also confirmed by testing many different MDR P. aeruginosa clinical isolates (see e.g., FIG. 11A-11B), providing further confidence of their inhibitory potency; (2) the expression of the genes that encode the enzymes catalyzing the synthesis of both pro-acute and pro-persistence MvfR-regulated virulence molecules, 4-hydroxyl-2-alkyl-quinolines (HAQs) and 2-aminoacetophenon (2-AA), as assessed by pqsAGFP reporter gene expression (see e.g., FIG. 9B) and HAQ production showing the levels of MvfR inducers/ligands HHQ and PQS as well as of the molecules critical for biofilm and Antibiotic tolerant/persiters cells formation HQNO and 2-AA (see e.g., FIG. 9C); (3) AT/P cell formation (see e.g., FIGS. 11A, 12A); (4) biofilm formation (see e.g., FIG. 12B); and (5) biofilm dispersal of preformed biofilm by potentiating antibiotic action (see e.g., FIG. 11B).

[4] = compound at 50 uM, listed as G1

Row | Compound | activity at 50 µM (MvfR regulon [1]; read-out: 2-AA @50 uM) [%] | activity at 50 µM (MvfR regulon [1]; read-out: HHQ @50 uM (%)) [%] | activity at 50 µM (MvfR regulon [1]; read-out: HQNO @50 uM (%)) [%] | activity at 50 µM (MvfR regulon [1]; read-out: PQS @50 uM (%)) [%] | activity at 50 µM (MvfR regulon [1]; read-out: DHQ @50 uM) [%] | activity at 50 µM (MvfR regulon [2]; Pseudomonas aeruginosa) [%] | activity at 50 µM (MvfR regulon [3]; Pseudomonas aeruginosa) [%] | activity at 50 µM (MvfR regulon [1]; read-out: AA @50 uM) [%] | further results
1 | Cc1cc(F)ccc1NCC(=O)Nc1cccc(C#N)c1 [Compound 2] | 122 | 100 | 101 | 109 | – | – | – | – | pyocyanin @50 uM (%) (MvfR regulon [2]; [4]): 102.49%; pqsA @50 uM (%) (MvfR regulon [3]; [4]): 84.13%
2 | Cc1cc(F)ccc1NCC(=O)Nc1ccc(C(F)(F)F)cc1 [Compound 3] | 68.3 | 110 | 86.5 | 93.4 | 81.5 | 60.9 | 46 | – | –
3 | Cc1cc(F)ccc1NCC(=O)Nc1ccccc1C#N [Compound 4] | 123 | 99.2 | 111 | 122 | – | 113 | 95.9 | – | –
4 | Cc1cc(F)ccc1NCC(=O)Nc1ccc(F)cc1 [Compound 5] | 80.4 | 94.6 | 92.3 | 88.5 | 84.7 | 83.6 | 92 | – | –
5 | Cc1cc(F)ccc1OCC(=O)Nc1ccc(C#N)cc1 [Compound 6] | 63.4 | 114 | 111 | 114 | 82.7 | 98.4 | 98 | – | –
6 | Cc1cc(F)ccc1NC(C)C(=O)Nc1ccc(C#N)cc1 (stereo not drawn) [Compound 7] | 152 | 106 | 131 | 115 | – | 110 | 86.8 | – | –
7 | Cc1cc(F)ccc1OCC(=O)Nc1ccc(F)cc1 [Compound 8] | 71.7 | 83.5 | 94 | 94.7 | 67.8 | 91.1 | 78 | – | –
8 | N#Cc1ccc(NC(=O)CNc2ccc(F)cc2)cc1 [Compound 9] | 112 | 87.1 | 108 | 124 | – | 85.6 | 63.2 | – | –
9 | Cc1ccccc1NCC(=O)Nc1ccc(C#N)cc1 [Compound 10] | 63.9 | 76.4 | 92.5 | 124 | 59.5 | 94.3 | 92.9 | – | –
10 | Cc1ccccc1N(C)CC(=O)Nc1ccc(C#N)cc1 [Compound 12] | 63.1 | 73.4 | 91.2 | 95.5 | 51.5 | 96 | 95.7 | – | –
11 | N#Cc1ccc(NC(=O)CCNc2ccc(F)cc2)cc1 [Compound 46] | 113 | 97 | 95.8 | 97.2 | 99.5 | 90.8 | 79.6 | 101 | –
12 | N#Cc1ccc(NC(=O)CCNc2ccc(F)cc2F)cc1 [Compound 47] | 100 | 109 | 101 | 108 | 99.3 | 88.3 | 74.3 | 129 | –
13 | N#Cc1ccc(NC(=O)CC(=O)Nc2ccc(F)cc2)cc1 [Compound 48] | 37.3 | 56.8 | 58.5 | 46.7 | 68.3 | 15.7 | 9.7 | 187 | IC50 (MvfR regulon [1]; PA14, read-out: IC50 2-AA (μM)): 20.9 µM; IC50 (MvfR regulon [1]; PA14, read-out: IC50 DHQ (μM)): 33 µM; IC50 (MvfR regulon [1]; PA14, read-out: IC50 HHQ (μM)): 47.5 µM; IC50 (MvfR regulon [1]; PA14, read-out: IC50 PQS (μM)): 36.5 µM; IC50 (MvfR regulon [1]; read-out: IC50 AA (increase; μM)): 42.5 µM; IC50 (MvfR regulon [1]; read-out: IC50 HQNO (μM)): 33.7 µM; IC50 (MvfR regulon [2]; Pseudomonas aeruginosa, read-out: IC50 pyocyanin (μM)): 7.1 µM; IC50 (MvfR regulon [3]; Pseudomonas aeruginosa, read-out: IC50 pqsA (μM)): 5.5 µM
14 | N#Cc1ccc(NC(=O)C(=O)Nc2ccc(F)cc2)cc1 [Compound 49] | 103 | 97.9 | 99.5 | 110 | 105 | 106 | 96.9 | 89.8 | –
15 | Cc1cc(F)ccc1N1CCCC(NC(=O)c2ccc(C#N)cc2)C1 (stereo not drawn) [Compound 50] | 101 | 98.5 | 100 | 96.1 | 84.2 | 108 | 89.9 | 54.5 | –
16 | Cc1cc(F)ccc1CCNC(=O)c1ccc(C#N)cc1 [Compound 51] | 106 | 96.2 | 102 | 93.5 | 95.5 | 110 | 91.4 | 68 | –
17 | Cc1cc(F)ccc1NC(=O)Cc1ccc(C#N)cc1 [Compound 52] | 113 | 102 | 109 | 99.8 | 84.9 | 115 | 95.7 | 80.7 | –
18 | N#Cc1ccc(NC(=O)CNC(=O)c2ccc(F)cc2)cc1 [Compound 58] | 86.6 | 77.8 | 85.9 | 85.1 | 89.8 | 94 | 70.7 | 32.3 | activity at 10 µM (MvfR regulon [3]; Pseudomonas aeruginosa): 11%
19 | CN(C(=O)CC(=O)Nc1ccc(C#N)cc1)c1ccc(F)cc1 [Compound 59] | 97.3 | 75.9 | 85.3 | 86.6 | 91 | 110 | 105 | 35.5 | activity at 10 µM (MvfR regulon [3]; Pseudomonas aeruginosa): 110%
20 | N#Cc1ccc(NC(=S)CC(=S)Nc2ccc(F)cc2)cc1 [Compound 60] | 104 | 66.6 | 77 | 83.6 | 82.9 | 106 | 80.7 | 28.2 | activity at 10 µM (MvfR regulon [3]; Pseudomonas aeruginosa): 117%
21 | N#Cc1ccc(NC(=O)CCC(=O)Nc2ccc(F)cc2)cc1 [Compound 61] | 93.6 | 79 | 85.5 | 87.2 | 93 | 99 | 77.8 | 42.4 | activity at 10 µM (MvfR regulon [3]; Pseudomonas aeruginosa): 112%
22 | Cc1cc(F)ccc1NC(=O)CC(=O)Nc1ccc(C#N)cc1 [Compound 62] | 72.7 | 79.6 | 86.5 | 83.5 | 84.7 | 59.5 | 43.6 | 58.7 | activity at 10 µM (MvfR regulon [3]; Pseudomonas aeruginosa): 110%
23 | N#Cc1ccc(NC(=O)C(N)C(=O)Nc2ccc(C#N)cc2)cc1 [Compound 114] | – | – | – | – | – | 2.85 | 1.75 | – | activity at 1 µM (MvfR regulon [2]; Pseudomonas aeruginosa, read-out: pyocyanin @1 uM (%), compound at 1 uM): 94.9%; activity at 10 µM (MvfR regulon [2]; Pseudomonas aeruginosa, read-out: pyocyanin @10 uM (%), compound at 10 uM): 66.1%; activity at 10 µM (MvfR regulon [3]; Pseudomonas aeruginosa): 58.9%

From patent publication US11731946B2, “Broad spectrum antivirulence, anti-persistence compounds” (priority 2017, dated 2023)
